Reference: ChEMBL document CHEMBL1201862, “PubChem BioAssay data set” (2004)
The source made the active and inactive calls.

What was measured:
[1] = biological target: T1, Acyl-homoserine lactone acylase PvdQ (Pseudomonas aeruginosa (strain LESB58), UniProt Q9I194); experiment: P. aeruginosa PvdQ acylase inhibitors, dose response, biochemical, fluorescence, plate reader and imaging, cherry-picks (AID 493231)
T1 sequence (Q9I194 whole entry): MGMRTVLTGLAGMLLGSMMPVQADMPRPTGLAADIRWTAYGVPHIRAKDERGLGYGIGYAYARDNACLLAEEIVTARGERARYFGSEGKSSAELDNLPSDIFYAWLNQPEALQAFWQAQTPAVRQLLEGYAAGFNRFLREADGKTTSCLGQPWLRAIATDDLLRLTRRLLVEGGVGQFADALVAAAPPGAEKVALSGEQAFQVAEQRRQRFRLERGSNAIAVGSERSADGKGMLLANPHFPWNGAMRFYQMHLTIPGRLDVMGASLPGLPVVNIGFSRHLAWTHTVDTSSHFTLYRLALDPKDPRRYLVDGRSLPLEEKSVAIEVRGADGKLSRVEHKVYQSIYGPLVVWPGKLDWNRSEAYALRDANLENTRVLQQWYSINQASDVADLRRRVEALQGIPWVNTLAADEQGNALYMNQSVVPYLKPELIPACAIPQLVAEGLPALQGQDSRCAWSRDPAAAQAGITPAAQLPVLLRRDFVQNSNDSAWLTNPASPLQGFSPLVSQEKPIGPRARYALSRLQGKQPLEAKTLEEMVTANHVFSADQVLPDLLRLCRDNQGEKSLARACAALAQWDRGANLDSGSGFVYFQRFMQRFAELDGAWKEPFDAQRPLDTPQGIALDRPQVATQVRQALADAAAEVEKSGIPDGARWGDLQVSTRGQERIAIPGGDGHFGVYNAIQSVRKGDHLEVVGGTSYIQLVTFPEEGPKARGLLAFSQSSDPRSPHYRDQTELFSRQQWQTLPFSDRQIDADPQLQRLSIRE

HeLa = experiment: HeLa cell cytotoxicity, dose response, cytotoxicity control, 48 h, plate reader, cherry-picks (AID 504942); type: functional, cell-based; details: Homo sapiens
[2] = NIH-3T3 fibroblast cytotoxicity, dose response, cytotoxicity control, cell-based, fluorescence, Alamar Blue, secondary assay (AID 2327); type: functional;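 further: NIH-3T3 mouse fibroblasts cultured with fluconazole at 8 µg/mL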
cells [3] = type: functional, cell-based
[4] = C. albicans growth with fluconazole, confirmation, fluorescence, retest (AID 2467); type: functional, cell-based
cells [5] = type: functional, cell-based; remark: listed apart in the source
[6] = biological target: T2, Serine/threonine-protein phosphatase (Candida dubliniensis (strain CD36 / CBS 7987 / NCPF 3949 / NRRLY-17841) (Yeast), UniProt B9W6M3); experiment: calcineurin pathway inhibitors in yeast reporter, dose response, S. cerevisiae, CDRE-lacZ, luminescence, secondary (AID 2388); type: functional, cell-based;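 further: yeast reporter cells carrying a calcineurin-responsive lacZ construct stimulated with calcium chloride; luminescent beta-galactosidase reporter signal in whole cells rather than isolated phosphatase activity; potency for inhibition where a drop in reporter signal means calcineurin blockade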
T2 sequence (B9W6M3 whole entry): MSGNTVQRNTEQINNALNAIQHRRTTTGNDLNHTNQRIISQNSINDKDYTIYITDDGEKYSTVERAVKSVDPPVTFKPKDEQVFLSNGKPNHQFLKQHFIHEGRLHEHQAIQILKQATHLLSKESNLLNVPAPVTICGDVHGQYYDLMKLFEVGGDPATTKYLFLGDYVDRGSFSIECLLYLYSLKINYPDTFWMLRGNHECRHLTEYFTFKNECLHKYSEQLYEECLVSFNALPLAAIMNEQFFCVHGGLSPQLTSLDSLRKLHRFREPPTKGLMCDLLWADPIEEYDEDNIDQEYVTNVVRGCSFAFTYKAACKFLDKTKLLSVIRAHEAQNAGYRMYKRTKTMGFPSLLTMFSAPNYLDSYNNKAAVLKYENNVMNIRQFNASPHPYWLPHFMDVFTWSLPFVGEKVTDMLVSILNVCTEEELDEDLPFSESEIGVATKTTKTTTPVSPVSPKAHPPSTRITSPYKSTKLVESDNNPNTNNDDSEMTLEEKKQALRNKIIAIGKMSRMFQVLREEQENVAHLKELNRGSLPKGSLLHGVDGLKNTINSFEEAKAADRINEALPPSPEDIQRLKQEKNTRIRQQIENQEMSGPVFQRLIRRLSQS

[7] = cytotoxicity in HEK-293T cells, dose response, cytotoxicity control for TCR NF-kB inhibitor project, luminescence, T-cell screen hits (AID 489026); type: functional, cell-based;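 further: cells exposed to compound about 14 hours before the viability readout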
HEK293 = experiment: inhibitors of LMP1-driven NF-kB reporter, dose response, cell-based, HEK293, luciferase, cherry-pick (AID 588343); type: functional; details: Homo sapiens
[8] = biological target: Dual specificity tyrosine-phosphorylation-regulated kinase 1A (Rattus norvegicus, UniProt Q63470); type: biochemical, Homo sapiens
[9] = biological target: ATP-dependent molecular chaperone HSP82 (Candida albicans (strain WO-1) (Yeast), UniProt C4YTQ8); experiment: loss of DOC-induced GRE-beta-galactosidase reporter signal, dose response, Hsp90 inhibitor project, S. cerevisiae, luminescence (AID 2400); type: functional, cell-based;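 further: beta-galactosidase luminescence from glucocorticoid response element reporter as proxy for Hsp90 function; inhibitor potency where signal loss means Hsp90 inhibition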
ATP-dependent molecular chaperone HSP82, sequence (C4YTQ8 whole entry, the tested form may be a part): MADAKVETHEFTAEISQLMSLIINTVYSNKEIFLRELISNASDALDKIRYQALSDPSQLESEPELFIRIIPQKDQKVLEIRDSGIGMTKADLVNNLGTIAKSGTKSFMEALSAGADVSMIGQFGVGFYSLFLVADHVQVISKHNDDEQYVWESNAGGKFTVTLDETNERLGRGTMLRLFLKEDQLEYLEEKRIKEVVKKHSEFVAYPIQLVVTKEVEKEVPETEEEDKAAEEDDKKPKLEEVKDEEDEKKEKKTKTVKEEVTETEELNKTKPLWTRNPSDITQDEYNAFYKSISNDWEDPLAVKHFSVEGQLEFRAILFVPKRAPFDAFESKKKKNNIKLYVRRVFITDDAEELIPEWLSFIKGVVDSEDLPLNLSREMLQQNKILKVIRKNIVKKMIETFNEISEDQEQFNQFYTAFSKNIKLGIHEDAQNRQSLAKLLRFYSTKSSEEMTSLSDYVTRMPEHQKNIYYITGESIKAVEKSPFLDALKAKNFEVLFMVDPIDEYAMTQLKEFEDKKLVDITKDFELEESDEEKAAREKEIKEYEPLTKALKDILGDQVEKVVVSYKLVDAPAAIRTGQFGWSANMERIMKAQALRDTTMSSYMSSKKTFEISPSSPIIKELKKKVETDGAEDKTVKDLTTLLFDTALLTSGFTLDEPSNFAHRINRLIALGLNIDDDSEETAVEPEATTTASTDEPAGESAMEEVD

[10] = biological target: Photoreceptor-specific nuclear receptor (Homo sapiens, UniProt Q9Y5X4); type: functional, cell-based;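 further: CHO-S cells with Gal4-NCOR and VP16-NR2E3 two-hybrid luciferase reporter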
Photoreceptor-specific nuclear receptor, sequence (Q9Y5X4 whole entry, the tested form may be a part): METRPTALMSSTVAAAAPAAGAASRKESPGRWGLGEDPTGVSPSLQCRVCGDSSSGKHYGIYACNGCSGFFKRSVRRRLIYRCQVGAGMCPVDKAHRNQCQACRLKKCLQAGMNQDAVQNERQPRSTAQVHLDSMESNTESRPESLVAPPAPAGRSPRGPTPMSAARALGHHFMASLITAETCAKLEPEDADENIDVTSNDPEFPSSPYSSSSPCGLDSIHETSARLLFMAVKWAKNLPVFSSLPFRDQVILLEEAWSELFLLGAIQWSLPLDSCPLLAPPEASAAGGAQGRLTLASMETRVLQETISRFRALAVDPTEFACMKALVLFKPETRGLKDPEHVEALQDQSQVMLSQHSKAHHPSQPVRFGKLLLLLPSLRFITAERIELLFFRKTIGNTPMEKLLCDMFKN

[11] = biological target: SWI/SNF-related matrix-associated actin-dependent regulator of chromatin subfamily A member 2 (Homo sapiens, UniProt P51531); experiment: Luminescence-based cell-based high throughput dose response assay to identify activators of the function of SWI/SNF related, matrix associated, actin dependent regulator of chromatin, subfamily a, member 2 (SMARCA2, BRM).; type: functional
SWI/SNF-related matrix-associated actin-dependent regulator of chromatin subfamily A member 2, sequence (P51531 whole entry): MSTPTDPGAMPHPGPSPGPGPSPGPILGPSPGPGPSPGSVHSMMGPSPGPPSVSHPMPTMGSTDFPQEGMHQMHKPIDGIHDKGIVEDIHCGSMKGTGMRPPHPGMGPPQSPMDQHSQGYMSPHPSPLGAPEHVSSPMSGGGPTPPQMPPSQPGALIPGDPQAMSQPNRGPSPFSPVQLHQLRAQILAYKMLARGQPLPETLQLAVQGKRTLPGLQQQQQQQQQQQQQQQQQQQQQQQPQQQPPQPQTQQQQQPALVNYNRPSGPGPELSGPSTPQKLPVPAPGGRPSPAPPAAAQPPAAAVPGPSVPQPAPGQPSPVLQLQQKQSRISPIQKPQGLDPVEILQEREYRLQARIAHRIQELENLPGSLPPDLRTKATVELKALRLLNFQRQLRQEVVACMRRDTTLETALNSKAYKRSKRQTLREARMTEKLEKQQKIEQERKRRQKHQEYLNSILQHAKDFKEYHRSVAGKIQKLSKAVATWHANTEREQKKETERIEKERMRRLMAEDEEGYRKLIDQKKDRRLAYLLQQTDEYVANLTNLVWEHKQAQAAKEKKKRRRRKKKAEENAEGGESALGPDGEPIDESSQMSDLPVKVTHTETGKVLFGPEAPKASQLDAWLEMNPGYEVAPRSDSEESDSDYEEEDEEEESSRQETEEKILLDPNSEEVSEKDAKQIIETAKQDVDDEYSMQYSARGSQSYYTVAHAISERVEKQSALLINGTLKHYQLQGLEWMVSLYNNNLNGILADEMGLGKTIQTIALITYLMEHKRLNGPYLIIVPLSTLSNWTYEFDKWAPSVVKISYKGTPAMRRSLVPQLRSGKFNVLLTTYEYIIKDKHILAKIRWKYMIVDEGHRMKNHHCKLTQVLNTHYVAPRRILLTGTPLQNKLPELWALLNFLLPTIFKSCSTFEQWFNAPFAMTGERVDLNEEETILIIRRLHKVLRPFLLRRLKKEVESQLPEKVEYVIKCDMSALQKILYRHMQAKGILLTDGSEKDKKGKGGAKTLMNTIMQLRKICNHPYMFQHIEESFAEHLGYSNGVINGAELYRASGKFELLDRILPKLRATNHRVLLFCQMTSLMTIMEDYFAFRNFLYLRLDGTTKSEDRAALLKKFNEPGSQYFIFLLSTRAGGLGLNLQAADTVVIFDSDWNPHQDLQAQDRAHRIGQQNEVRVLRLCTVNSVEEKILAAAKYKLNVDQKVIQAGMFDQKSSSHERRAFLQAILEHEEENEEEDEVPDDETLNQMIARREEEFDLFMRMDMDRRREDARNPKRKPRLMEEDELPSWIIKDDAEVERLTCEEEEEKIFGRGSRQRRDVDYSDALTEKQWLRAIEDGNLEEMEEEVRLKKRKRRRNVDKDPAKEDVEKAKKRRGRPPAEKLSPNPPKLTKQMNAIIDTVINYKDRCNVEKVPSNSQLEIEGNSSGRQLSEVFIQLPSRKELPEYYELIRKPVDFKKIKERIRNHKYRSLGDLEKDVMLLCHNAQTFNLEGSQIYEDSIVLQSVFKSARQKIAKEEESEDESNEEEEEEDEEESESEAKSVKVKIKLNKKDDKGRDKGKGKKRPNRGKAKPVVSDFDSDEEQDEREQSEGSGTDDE

[12] = Counterscreen for activators of the function of SWI/SNF related, matrix associated, actin dependent regulator of chromatin, subfamily a, member 2 (SMARCA2, BRM): Luminescence-based cell-based high throughput dose response assay to identify non-selective compounds using the VP16 reporter assay.; type: functional
Hexokinase-1 = biological target: T3, Hexokinase-1 (Homo sapiens, UniProt P19367); experiment: SAR analysis of small molecule inhibitors of hexokinase domain containing I (HKDC1) in the hexokinase 1 selectivity assay. [Related pubchem assays (depositor defined):AID493160, AID493190]; type: functional
T3 sequence (P19367 whole entry): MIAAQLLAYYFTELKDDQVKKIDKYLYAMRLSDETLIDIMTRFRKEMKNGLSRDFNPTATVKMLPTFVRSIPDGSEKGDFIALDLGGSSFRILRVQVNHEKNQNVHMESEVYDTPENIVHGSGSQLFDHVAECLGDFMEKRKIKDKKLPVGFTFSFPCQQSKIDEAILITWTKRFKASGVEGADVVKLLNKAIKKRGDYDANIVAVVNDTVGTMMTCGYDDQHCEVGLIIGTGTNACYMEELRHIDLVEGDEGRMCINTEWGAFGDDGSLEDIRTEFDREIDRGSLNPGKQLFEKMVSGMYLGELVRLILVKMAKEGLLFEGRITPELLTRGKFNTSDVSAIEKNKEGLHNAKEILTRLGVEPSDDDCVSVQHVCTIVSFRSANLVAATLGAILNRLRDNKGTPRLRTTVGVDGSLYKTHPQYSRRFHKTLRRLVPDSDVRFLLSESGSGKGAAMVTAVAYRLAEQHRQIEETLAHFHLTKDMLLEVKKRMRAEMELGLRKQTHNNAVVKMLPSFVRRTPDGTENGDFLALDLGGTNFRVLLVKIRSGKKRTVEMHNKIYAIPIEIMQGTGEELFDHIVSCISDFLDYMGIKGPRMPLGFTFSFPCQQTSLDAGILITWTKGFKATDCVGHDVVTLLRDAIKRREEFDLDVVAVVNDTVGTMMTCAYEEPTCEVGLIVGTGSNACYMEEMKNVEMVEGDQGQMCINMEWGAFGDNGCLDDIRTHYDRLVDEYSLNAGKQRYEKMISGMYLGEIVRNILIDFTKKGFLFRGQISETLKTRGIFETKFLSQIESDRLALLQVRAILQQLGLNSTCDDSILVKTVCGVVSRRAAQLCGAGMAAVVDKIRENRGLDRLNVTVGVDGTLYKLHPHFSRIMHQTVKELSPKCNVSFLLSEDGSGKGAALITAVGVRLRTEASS

Hexokinase HKDC1 = biological target: T4, Hexokinase HKDC1 (Homo sapiens, UniProt Q2TB90); experiment: SAR analysis of small molecule inhibitors of hexokinase domain containing I (HKDC1). [Related pubchem assays (depositor defined):AID493160, AID493190]; type: functional
T4 sequence (Q2TB90 whole entry): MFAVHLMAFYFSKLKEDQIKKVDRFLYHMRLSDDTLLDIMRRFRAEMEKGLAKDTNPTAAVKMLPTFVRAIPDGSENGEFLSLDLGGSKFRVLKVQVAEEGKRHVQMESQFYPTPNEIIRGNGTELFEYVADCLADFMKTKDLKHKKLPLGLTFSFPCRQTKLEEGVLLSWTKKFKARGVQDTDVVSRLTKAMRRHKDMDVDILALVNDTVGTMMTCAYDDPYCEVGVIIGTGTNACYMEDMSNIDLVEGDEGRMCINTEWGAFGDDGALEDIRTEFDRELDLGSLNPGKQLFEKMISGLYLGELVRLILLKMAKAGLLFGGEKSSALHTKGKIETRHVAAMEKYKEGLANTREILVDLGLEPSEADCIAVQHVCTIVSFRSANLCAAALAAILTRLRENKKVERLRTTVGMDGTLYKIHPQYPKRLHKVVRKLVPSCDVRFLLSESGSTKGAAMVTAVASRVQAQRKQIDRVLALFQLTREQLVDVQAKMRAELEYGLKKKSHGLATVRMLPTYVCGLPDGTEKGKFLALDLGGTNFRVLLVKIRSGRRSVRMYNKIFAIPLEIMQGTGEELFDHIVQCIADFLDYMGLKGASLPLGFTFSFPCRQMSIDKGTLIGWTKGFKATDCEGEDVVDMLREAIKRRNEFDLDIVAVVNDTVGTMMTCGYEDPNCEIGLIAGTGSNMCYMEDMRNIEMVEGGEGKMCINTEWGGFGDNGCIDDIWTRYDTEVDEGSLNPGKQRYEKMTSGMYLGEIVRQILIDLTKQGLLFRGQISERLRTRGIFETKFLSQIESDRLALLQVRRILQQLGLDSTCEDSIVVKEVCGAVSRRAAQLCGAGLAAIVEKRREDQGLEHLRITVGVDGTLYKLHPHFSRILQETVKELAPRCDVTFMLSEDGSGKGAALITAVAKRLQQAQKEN

With `Cc1cc(NC(=O)Nc2ccccc2[N+](=O)[O-])no1` the AC50 [1] was 2.02 µM (active) and the AC50 (HeLa) was > 380 µM (inactive).
With `COc1ccc2c(c1)/C(=C/c1cnc[nH]1)C(=O)N2` [SU-9516] the EC50 [2] was > 160 µM (inactive), the EC50 (cells [3]) was > 350 µM (not active) and the EC50 [4] was 0.956 µM (active). For the same molecule, the EC50 (cells [5]) was > 350 µM (not active), the EC50 [6] was > 180 µM (inactive) and the IC50 [7] was 71.8 µM (inactive). For the same molecule, the AC50 (HEK293) was 34.2 µM (active), the AC50 [8] was 0.995 µM (active) and the EC50 [9] was > 160 µM (inactive). For the same molecule, the IC50 [10] was 1.19 µM (active), the EC50 [11] was > 91.2 µM (inactive) and the EC50 [12] was > 91.2 µM (inactive).
In the case of `O=c1c2ccccc2nc(/C=C/c2cccc(O)c2)n1Cc1ccccc1`, the IC50 (Hexokinase-1) was > 80 µM (inactive) and the IC50 (Hexokinase HKDC1) was > 80 µM (inactive).
